Measured values taken from US8536187B2 (Gilead Sciences, Inc., priority 2008, dated 2013).
pEC50: −log10 of the molar value.

How the values were obtained:
[1] = tested on: HCV replicon in human hepatoma Huh-7 cell line; assay: Anti-HCV replicon assay, EC50 (luciferase luminescence); format: cell-based; conditions: Hepatitis C virus, Huh-7, 72 h
In short: (§1)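 Cytotoxicity (CC50) read by CellTiter-Glo luminescence after 10 min, and antiviral EC50 by luciferase signal after 30 min lysis with substrate, both at room temperature. Preceding step: 3-day exposure of 6000 Huh-7 HCV replicon cells per well to compound dilution series at 37° C, 5% CO2, in 0.5% DMSO.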

[2] = CC50 assay (CellTiter-Glo) in Huh-7 HCV replicon cells; format: cell-based; conditions: human, Table 2, 3 days incubation
In short: as §1

| Compound | pEC50 [1] | CC50 at 3 days [2] [nM] |
| --- | --- | --- |
| Fc1ccc(-c2ccc3nc(NCc4ccc(-n5ccnc5)cc4)nc(NC4(C(F)(F)F)CC4)c3n2)cc1 [Example 126, N^2-(4-(1H-imidazol-1-yl)benzyl)-6-(4-fluorophenyl)-N^4-(1-(trifluoromethyl)cyclopropyl)pyrido[3,2-d] pyrimidine-2,4-diamine] | 5.70 to 6.60 | 1000 to 10000 |
| FC(F)(F)C1(Nc2nc(NCc3ccc(-n4cncn4)cc3)nc3ccc(-c4ccc(NC5CC5)nc4)nc23)CC1 [Example 127, N^2-(4-(1H-1,2,4-triazol-1-yl)benzyl)-6-(6-(cyclopropylamino)pyridin-3-yl)-N^4-(1-(trifluoromethyl)cyclopropyl)pyrido[3,2-d] pyrimidine-2,4-diamine] | > 7.00 | 1000 to 10000 |
| Fc1ccc(-c2ccc3nc(NCc4cc(F)cc(-n5cncn5)c4)nc(NC4(C(F)(F)F)CC4)c3n2)cc1 [Example 128, N^2-(3-fluoro-5-(1H-1,2,4-triazol-1-yl)benzyl)-6-(4-fluorophenyl)-N^4-(1-(trifluoromethyl)cyclopropyl) pyrido[3,2-d]pyrimidine-2,4-diamine] | 5.70 to 6.60 | > 10000 |
| O=C1NCCN1c1ccc(-c2ccc3nc(NCc4ccc(-n5cncn5)cc4)nc(NC4(C(F)(F)F)CC4)c3n2)cc1 [Example 129, 1-(4-(2-(4-(1H-1,2,4-triazol-1-yl)benzylamino)-4-(1-(trifluoromethyl)cyclopropyl-amino)pyrido[3,2-d]pyrimidin-6-yl)phenyl)imidazolidin-2-one] | > 7.00 | < 1000 |
| NS(=O)(=O)c1ccc(CNc2nc(NC3(C(F)(F)F)CC3)c3nc(-c4ccc(N5CCCS5(=O)=O)cc4)ccc3n2)cc1 [Example 130, 4-((6-(4-(1,1-dioxo-isothiazolidin-2-yl)phenyl)-4-(1-(trifluoromethyl)cyclopropyl-amino)pyrido[3,2-d]pyrimidin-2-ylamino)methyl)benzene-sulfonamide] | > 7.00 | < 1000 |
| C[C@@H](Nc1nc(NC2(C(F)(F)F)CC2)c2nc(-c3cnc(NC4CC4)c(F)c3)ccc2n1)c1ccc(-n2cncn2)cc1 [Example 131, N^2-((R)-1-(4-(1H-1,2,4-triazol-1-yl)phenyl)ethyl)-6-(6-(cyclopropylamino)-5-fluoropyridin-3-yl)-N^4-(1-(trifluoromethyl)cyclopropyl) pyrido[3,2-d]pyrimidine-2,4-diamine] | 6.60 to 7.00 | 1000 to 10000 |
| COc1ccc(-c2ccc3nc(NCc4ccc(S(N)(=O)=O)cc4)nc(NC4(C#N)CC4)c3n2)cn1 [Example 132, 4-((4-(1-cyanocyclopropylamino)-6-(6-methoxypyridin-3-yl)pyrido[3,2-d]pyrimidin-2-ylamino)methyl)benzene-sulfonamide] | > 7.00 | > 10000 |
| NC(=O)c1ccc(CNc2nc(NC3(C(N)=O)CC3)c3nc(-c4ccc(F)cc4)ccc3n2)cn1 [Example 133, 5-((4-(1-carbamoylcyclo-propylamino)-6-(4-fluorophenyl)pyrido[3,2-d]pyrimidin-2-ylamino)methyl)picolinamide] | 6.60 to 7.00 | > 10000 |
| CS(=O)(=O)Nc1cncc(CNc2nc(NC3(C(F)(F)F)CC3)c3nc(-c4ccc(F)cc4)ccc3n2)c1 [Example 134, N-(5-((6-(4-fluorophenyl)-4-(1-(trifluoromethyl)cyclopropyl-amino)pyrido[3,2-d]pyrimidin-2-ylamino)methyl)pyridin-3-yl)methanesulfonamide] | 5.70 to 6.60 | > 10000 |
| C[C@@H](Nc1nc(NCC(F)(F)F)c2nc(-c3cccc(S(C)(=O)=O)c3)ccc2n1)c1ccc(S(=O)(=O)NC(C)(C)C)cc1 [Example 136, N-tert-butyl-4-((R)-1-(6-(3-(methylsulfonyl)phenyl)-4-(2,2,2-trifluoroethylamino)pyrido[3,2-d]pyrimidin-2-ylamino)ethyl)benzene-sulfonamide] | > 7.00 | > 10000 |
| CS(=O)(=O)c1cccc(-c2ccc3nc(NCCS(N)(=O)=O)nc(NCC(F)(F)F)c3n2)c1 [Example 137, 2-(6-(3-(methylsulfonyl)phenyl)-4-(2,2,2-trifluoroethylamino)pyrido [3,2-d]pyrimidin-2-ylamino)ethanesulfonamide] | 6.60 to 7.00 | > 10000 |
| CS(=O)(=O)c1cccc(-c2ccc3nc(NC4CC4)nc(NCC(F)(F)F)c3n2)c1 [Example 138, N^2-cyclopropyl-6-(3-(methylsulfonyl)phenyl)-N^4-(2,2,2-trifluoroethyl)pyrido [3,2-d]pyrimidine-2,4-diamine] | 6.60 to 7.00 | > 10000 |
| COCCNc1nc(NCC(F)(F)F)c2nc(-c3cccc(S(C)(=O)=O)c3)ccc2n1 [Example 139, N^2-(2-methoxyethyl)-6-(3-(methylsulfonyl)phenyl)-N^4-(2,2,2-trifluoroethyl)pyrido [3,2-d]pyrimidine-2,4-diamine] | > 7.00 | > 10000 |
| COc1ccc(-c2ccc3nc(NCc4cccc(-n5cccn5)c4)nc(NCC(F)(F)F)c3n2)cc1S(C)(=O)=O [Example 140, N^2-(3-(1H-pyrazol-1-yl)benzyl)-6-(4-methoxy-3-(methylsulfonyl)phenyl)-N^4-(2,2,2-trifluoroethyl)pyrido [3,2-d]pyrimidine-2,4-diamine] | > 7.00 | 1000 to 10000 |
| COc1ccc(-c2ccc3nc(NCc4cc(C(F)(F)F)cc(S(N)(=O)=O)c4)nc(NCC(F)(F)F)c3n2)cc1S(C)(=O)=O [Example 141, 3-((6-(4-methoxy-3-(methylsulfonyl)phenyl)-4-(2,2,2-trifluoroethylamino)pyrido[3,2-d]pyrimidin-2-ylamino)methyl)-5-(trifluoromethyl)benzene-sulfonamide] | > 7.00 | > 10000 |
| CCC(=O)NS(=O)(=O)c1ccc(CNc2nc(NCC(F)(F)F)c3nc(-c4ccc(OC)c(S(C)(=O)=O)c4)ccc3n2)cc1 [Example 142, N-(4-((6-(4-methoxy-3-(methylsulfonyl)phenyl)-4-(2,2,2-trifluoroethylamino)pyrido[3,2-d]pyrimidin-2-ylamino)methyl)phenylsulfonyl) propionamide] | 5.70 to 6.60 | > 10000 |
| Cc1ccc(-c2ccc3nc(NCc4ccc(S(N)(=O)=O)cc4)nc(NCC(F)(F)F)c3n2)cc1S(C)(=O)=O [Example 143, 4-((6-(4-methyl-3-(methylsulfonyl)phenyl)-4-(2,2,2-trifluoroethylamino)pyrido[3,2-d]pyrimidin-2-ylamino)methyl)benzene-sulfonamide] | > 7.00 | > 10000 |
| COc1ccc(-c2ccc3nc(NCc4cccc(S(N)(=O)=O)c4)nc(NCC(F)(F)F)c3n2)cc1S(C)(=O)=O [Example 144, 3-((6-(4-methoxy-3-(methylsulfonyl)phenyl)-4-(2,2,2-trifluoroethylamino)pyrido[3,2-d]pyrimidin-2-ylamino)methyl)benzene-sulfonamide] | > 7.00 | 1000 to 10000 |
| COc1ccc(-c2ccc3nc(N[C@H](C)c4ccc(S(N)(=O)=O)cc4)nc(NCC(F)(F)F)c3n2)cc1S(C)(=O)=O [Example 145, 4-((R)-1-(6-(4-methoxy-3-(methylsulfonyl)phenyl)-4-(2,2,2-trifluoroethylamino)pyrido[3,2-d]pyrimidin-2-ylamino)ethyl)benzene-sulfonamide] | 6.60 to 7.00 | 1000 to 10000 |
| COCc1ccc(-c2ccc3nc(NCc4ccc(S(N)(=O)=O)cc4)nc(NCC(F)(F)F)c3n2)cc1S(C)(=O)=O [Example 146, 4-((6-(4-(methoxymethyl)-3-(methylsulfonyl)phenyl)-4-(2,2,2-trifluoroethylamino)pyrido[3,2-d]pyrimidin-2-ylamino)methyl)benzene-sulfonamide] | > 7.00 | > 10000 |
| COc1ccc(-c2ccc3nc(NCc4ccc(S(N)(=O)=O)c(Cl)c4)nc(NCC(F)(F)F)c3n2)cc1S(C)(=O)=O [Example 147, 2-chloro-4-((6-(4-methoxy-3-(methylsulfonyl)phenyl)-4-(2,2,2-trifluoroethylamino)pyrido[3,2-d]pyrimidin-2-ylamino)methyl)benzene-sulfonamide] | > 7.00 | > 10000 |
| CCS(=O)(=O)c1cc(-c2ccc3nc(NCc4ccc(S(N)(=O)=O)cc4)nc(NCC(F)(F)F)c3n2)ccc1OC [Example 149, 4-((6-(3-(ethylsulfonyl)-4-methoxyphenyl)-4-(2,2,2-trifluoroethylamino)pyrido[3,2-d]pyrimidin-2-ylamino)methyl) benzenesulfonamide] | > 7.00 | > 10000 |
| COc1ccc(-c2ccc3nc(N[C@H](C)c4ccc(-n5cncn5)cc4)nc(NCC(F)(F)F)c3n2)cc1S(C)(=O)=O [Example 150, N^2-((R)-1-(4-(1H-1,2,4-triazol-1-yl)phenyl)ethyl)-6-(4-methoxy-3-(methylsulfonyl)phenyl)-N^4-(2,2,2-trifluoroethyl) pyrido[3,2-d]pyrimidine-2,4-diamine] | > 7.00 | 1000 to 10000 |
| COc1ccc(-c2ccc3nc(NCc4ccc(S(N)(=O)=O)cc4)nc(NC(C(F)(F)F)C(F)(F)F)c3n2)cc1S(C)(=O)=O [Example 151, 4-((4-(1,1,1,3,3,3-hexafluoropropan-2-ylamino)-6-(4-methoxy-3-(methylsulfonyl)phenyl)pyrido[3,2-d]pyrimidin-2-ylamino)methyl)benzene-sulfonamide] | > 7.00 | 1000 to 10000 |
| Cc1ccc(-c2ccc3nc(N[C@H](C)c4ccc(S(N)(=O)=O)cc4)nc(NCC(F)(F)F)c3n2)cc1S(C)(=O)=O [Example 152, 4-((R)-1-(6-(4-methyl-3-(methylsulfonyl)phenyl)-4-(2,2,2-trifluoroethylamino)pyrido[3,2-d]pyrimidin-2-ylamino)ethyl)benzene-sulfonamide] | > 7.00 | > 10000 |
